The values below come from US20250346600A1, “TRICYCLIC DERIVATIVES AND RELATED USES” (MOMA Therapeutics, Inc., priority 2023, published 2025).

The test system of one test is HT29 cells. Nature of the test: HT29 (MSS) 7 day viability, CellTiter Glo. It is filed as cell-based. Particulars: Homo sapiens, HT-29, 168 h, 7 days, read-out: HT29 (MSS) Viability 7 Day CTGAbs AC50. The method in brief: (§1)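 Seven-day viability is assessed with CellTiter Glo after compounds, diluted in ten 3-fold steps in DMSO, are exposed to HCT116 (50 cells/well) or HT29 (500 cells/well). Reported IC50 is the geometric mean of at least two independent runs.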
(ATP-based viability assays read luminescence as a measure of living cells.)

The test system of another test is HCT116 cells. Nature of the test: HCT116 (MSI) 7 day viability, CellTiter Glo. It is filed as cell-based. To be noted: Homo sapiens, HCT-116, 168 h, 7 days, read-out: HCT116 (MSI) Viability 7 Day Abs AC50. In short, it runs like this:
as §1

Test [1] addresses Full length WRN protein (aa 2-1432) (Homo sapiens (Human), UniProt Q14191). The test can be described thus: WRN ATPase ADP-Glo biochemical assay, Assay Format A (10 μM ATP). To be noted: 0.25 nM WRN, 100 nM C6.18 ssDNA, 30 min preincubation, read-out: ATPase ADPGlo AC50 (uM)- Assay Format A. From the text:
Full length Werner helicase construct (Uniprot: Q14191) with an N-terminal FLAG-AVI-TEV tag was expressed using the Sf9 cell/baculovirus expression system. The harvested cell pellet was resuspended and lysed in a glass homogenizer. After insoluble material was removed by centrifugation, the helicase protein was first purified with FLAG affinity resin and then further purified through a size-exclusion chromatography column. Peak fractions containing the purified protein were concentrated, split into aliquots and frozen in liquid nitrogen to be thawed before use. Biochemical Assay Description (ATPase activity)-Assay Format A WRN activity was measured using an ATPase assay. Full length WRN protein (aa 2-1432) (production described separately) was used for the biochemical activity assays. The 39-mer ssDNA “C6.18” [NT] was purchased from IDT and used as a substrate. Quantification of ATP hydrolysis was evaluated using the ADP-Glo assay kit (Promega, Madison, WI). An enzyme titration time-course was performed to determine the optimal assay conditions. […] To evaluate the inhibitory effects of the compounds, 11-point 3-fold serial dilutions were prepared in DMSO. 50 nL of each concentration in duplicate was preincubated for 30 minutes in a 384-well microplate (Greiner #784075) with 5 μL of 0.5 nM WRN in assay buffer. The reaction was initiated by adding 5 μL of 200 nM C6.18 DNA with 20 μM ATP and was allowed to proceed for 30 minutes at room temperature. The reaction was stopped with 10 μL ADP-Glo reagent for 1 hour to remove unreacted ATP. Lastly, 20 μL ATP detection reagent was added and incubated for 1 hour to generate the luminescence signal. Control wells included “high controls” with no inhibition (DMSO, no compound) and “low controls” with maximum inhibition (no WRN). Luminescence was recorded on a PHERAstar (BMG Labtech, Ortenberg, Germany). Data was fit using the “Smart Fit” method within the Genedata Screener Software (Basel, Switzerland) to obtain IC50 values using four-parameter fits. Reported IC50s are the geometric means of at least two independent trials.
Background: ADP-Glo first removes unused ATP, then detects ADP through luciferase.

Structures are written as SMILES.

One may read the AC50 as the concentration at which the activity in the assay is half-maximal.

Full length WRN protein (aa 2-1432), sequence (Q14191 2-1432): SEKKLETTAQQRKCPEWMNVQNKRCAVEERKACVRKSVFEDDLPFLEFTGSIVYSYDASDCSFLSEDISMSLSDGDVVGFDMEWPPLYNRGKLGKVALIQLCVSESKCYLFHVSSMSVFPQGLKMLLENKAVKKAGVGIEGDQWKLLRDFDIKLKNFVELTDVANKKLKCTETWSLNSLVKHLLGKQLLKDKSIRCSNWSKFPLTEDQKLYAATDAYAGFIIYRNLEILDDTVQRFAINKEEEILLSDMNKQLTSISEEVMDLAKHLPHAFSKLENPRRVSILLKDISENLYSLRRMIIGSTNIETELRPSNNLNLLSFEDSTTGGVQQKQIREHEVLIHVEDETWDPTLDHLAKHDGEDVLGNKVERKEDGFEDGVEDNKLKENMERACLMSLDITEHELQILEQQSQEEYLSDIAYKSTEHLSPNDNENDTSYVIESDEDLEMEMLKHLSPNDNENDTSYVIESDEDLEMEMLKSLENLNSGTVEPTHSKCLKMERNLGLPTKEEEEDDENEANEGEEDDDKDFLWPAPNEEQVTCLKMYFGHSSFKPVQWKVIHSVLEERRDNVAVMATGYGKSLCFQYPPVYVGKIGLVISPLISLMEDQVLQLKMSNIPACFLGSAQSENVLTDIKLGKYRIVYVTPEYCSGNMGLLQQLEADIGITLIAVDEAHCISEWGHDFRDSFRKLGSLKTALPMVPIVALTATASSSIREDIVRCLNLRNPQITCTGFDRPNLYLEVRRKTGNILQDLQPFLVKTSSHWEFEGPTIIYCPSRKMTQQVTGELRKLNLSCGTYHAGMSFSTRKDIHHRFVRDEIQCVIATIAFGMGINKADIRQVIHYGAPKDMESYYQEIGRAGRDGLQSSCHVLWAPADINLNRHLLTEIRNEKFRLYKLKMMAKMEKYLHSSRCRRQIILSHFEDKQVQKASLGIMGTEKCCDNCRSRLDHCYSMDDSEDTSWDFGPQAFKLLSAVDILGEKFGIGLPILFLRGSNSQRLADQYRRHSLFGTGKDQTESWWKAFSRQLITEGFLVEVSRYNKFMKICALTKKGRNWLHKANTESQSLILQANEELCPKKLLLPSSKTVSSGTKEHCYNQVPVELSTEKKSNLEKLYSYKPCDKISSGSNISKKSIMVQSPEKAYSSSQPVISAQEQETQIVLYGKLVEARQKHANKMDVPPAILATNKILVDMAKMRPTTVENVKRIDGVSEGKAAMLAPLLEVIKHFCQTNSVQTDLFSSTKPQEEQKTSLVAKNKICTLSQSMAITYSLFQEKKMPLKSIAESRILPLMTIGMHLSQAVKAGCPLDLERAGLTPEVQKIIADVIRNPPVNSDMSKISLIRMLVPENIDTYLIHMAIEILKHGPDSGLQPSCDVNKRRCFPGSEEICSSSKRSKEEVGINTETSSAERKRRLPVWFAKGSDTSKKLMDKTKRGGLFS

For the compound `C=CC(=O)N1CCc2nn(-c3ccc(C(C)C)cc3)c3c2C(C1)N(C(=O)c1ccc2c(cnn2C(F)(F)F)c1)CC3` (stereo not drawn) [Compound 11, 1-(2-(4-isopropylphenyl)-5-(1-(trifluoromethyl)-1H-indazole-5-carbonyl)-2,3,4,5,5a,6,8,9-octahydro-7H-1,2,5,7-tetraazabenzo[cd]azulen-7-yl)prop-2-en-1-one], the AC50 is over 3000 nM in the test on HT29 cells, over 1000 nM with HCT116 cells and over 0.055 µM in test [1].
On the same counts, the results for `CC(C)c1ccc(-n2nc3c4c2CCN(C(=O)c2ccc(Br)c5[nH]cnc25)C4CN(C(=O)C2=CCC2)CC3)cc1` (stereo not drawn) [Compound 16, (7-bromo-1H-benzo[d]imidazol-4-yl)(7-(cyclobut-1-ene-1-carbonyl)-2-(4-isopropylphenyl)-2,3,4,5a,6,7,8,9-octahydro-5H-1,2,5,7-tetraazabenzo[cd]azulen-5-yl)methanone] are over 3000 nM, over 1000 nM and over 0.055 µM.
On the same counts, the results for `C=CC(=O)N1Cc2nn(-c3ccc(C(C)C)cc3C)c3c2C(C1)N(C(=O)c1ccc(Br)c(O)c1)CC3` (stereo not drawn) [Compound 35, 1-(6-(4-bromo-3-hydroxybenzoyl)-1-(4-isopropyl-2-methylphenyl)-1,5,5a,6,7,8-hexahydropyrazolo[3,4,5-de][1,7]naphthyridin-4(3H)-yl)prop-2-en-1-one] are over 3000 nM, 100 to 250 nM and 0.005 to 0.015 µM.
On the same counts, the results for `C=CC(=O)N1CCOCc2nn(-c3ccc(C(C)C)cc3C)c3c2C(C1)N(C(=O)c1ccc(Br)c(O)c1)CC3` (stereo not drawn) [Compound 36, 1-(5-(4-bromo-3-hydroxybenzoyl)-2-(4-isopropyl-2-methylphenyl)-2,4,5,5a,6,8,9,11-octahydro-10-oxa-1,2,5,7-tetraazacyclonona[cd]inden-7(3H)-yl)prop-2-en-1-one] are over 3000 nM, 500 to 1000 nM and 0.015 to 0.055 µM.
Turning to `C=CC(=O)N1CCn2nc(-c3ccc(C(C)C)cc3)c3c2C(C1)N(C(=O)c1ccc(Br)c(O)c1)CC3` (stereo not drawn) [Compound 37, 1-(5-(4-bromo-3-hydroxybenzoyl)-2-(4-isopropylphenyl)-4,5,5a,6,8,9-hexahydro-1,5,7,9a-tetraazabenzo[cd]azulen-7(3H)-yl)prop-2-en-1-one], the AC50 with HT29 cells is over 3000 nM; in the test with HCT116 cells, over 1000 nM; in test [1], 0.015 to 0.055 µM.
In the case of `C=CC(=O)N1CCOc2nn(-c3ccc(C(C)C)cc3)c3c2C(C1)N(C(=O)c1ccc(Br)c(O)c1)CC3` (stereo not drawn) [Compound 48, 1-(5-(4-bromo-3-hydroxybenzoyl)-2-(4-isopropylphenyl)-2,3,4,5,5a,6,8,9-octahydro-7H-10-oxa-1,2,5,7-tetraazacycloocta[cd]inden-7-yl)prop-2-en-1-one], the AC50 is over 3000 nM with HT29 cells, 100 to 250 nM in the test with HCT116 cells and 0.0015 to 0.005 µM in test [1].
As for `CN(C)CC=CC(=O)N1CCOc2nn(-c3ccc(C4CCC4)cc3)c3c2C(C1)N(C(=O)c1ccc(Br)c2[nH]cnc12)CC3` (stereo not drawn) [Compound 51, 1-(5-(7-bromo-1H-benzo[d]imidazole-4-carbonyl)-2-(4-cyclobutylphenyl)-2,3,4,5,5a,6,8,9-octahydro-7H-10-oxa-1,2,5,7-tetraazacycloocta[cd]inden-7-yl)-4-(dimethylamino)but-2-en-1-one], the AC50 is over 3000 nM with HT29 cells, over 1000 nM in the test on HCT116 cells and 0.015 to 0.055 µM in test [1].
With `C=CC(=O)N1CCN(C)c2nn(-c3ccc(C(C)C)cc3)c3c2C(C1)N(C(=O)c1ccc(Br)c2[nH]cnc12)CC3` (stereo not drawn) [Compound 56, 1-(5-(7-bromo-1H-benzo[d]imidazole-4-carbonyl)-2-(4-isopropylphenyl)-10-methyl-2,4,5,5a,6,8,9,10-octahydro-1,2,5,7,10-pentaazacycloocta[cd]inden-7(3H)-yl)prop-2-en-1-one], the AC50 is over 3000 nM with HT29 cells, 250 to 500 nM with HCT116 cells and 0.015 to 0.055 µM in test [1].
The like results for `C=CC(=O)N1CCc2nn(-c3ccc(C4CC4)cc3)c3c2C(C1)N(C(=O)c1ccc(-n2cccn2)nc1)CC3` (stereo not drawn) [Compound 98, 1-(5-(6-(1H-pyrazol-1-yl)nicotinoyl)-2-(4-cyclopropylphenyl)-2,3,4,5,5a,6,8,9-octahydro-7H-1,2,5,7-tetraazabenzo[cd]azulen-7-yl)prop-2-en-1-one] were, in that order, over 3000 nM, 250 to 500 nM and 0.015 to 0.055 µM.
As to `C=CC(=O)N1CCc2nn(-c3ccc(C4CC4)cc3)c3c2C(C1)N(C(=O)c1ccc(Br)nn1)CC3` (stereo not drawn) [Compound 108, 1-(5-(6-bromopyridazine-3-carbonyl)-2-(4-cyclopropylphenyl)-2,3,4,5,5a,6,8,9-octahydro-7H-1,2,5,7-tetraazabenzo[cd]azulen-7-yl)prop-2-en-1-one], in test [1], the AC50 is 0.005 to 0.015 µM.
Regarding `C=CC(=O)N1CCc2nn(-c3ccc(C4CC4)cc3)c3c2C(C1)N(C(=O)c1cnc2c(c1)c(C(F)(F)F)nn2C)CC3` (stereo not drawn) [Compound 111, 1-(2-(4-cyclopropylphenyl)-5-(1-methyl-3-(trifluoromethyl)-1H-pyrazolo[3,4-b]pyridine-5-carbonyl)-2,3,4,5,5a,6,8,9-octahydro-7H-1,2,5,7-tetraazabenzo[cd]azulen-7-yl)prop-2-en-1-one], the AC50 in test [1] lay in the range of 0.015 to 0.055 µM.
On to `C=CC(=O)N1CCc2nn(-c3ccc(C4CC4)cc3)c3c2C(C1)N(C(=O)c1cnc(Br)cc1C)CC3` (stereo not drawn) [Compound 113, 1-(5-(6-bromo-4-methylnicotinoyl)-2-(4-cyclopropylphenyl)-2,3,4,5,5a,6,8,9-octahydro-7H-1,2,5,7-tetraazabenzo[cd]azulen-7-yl)prop-2-en-1-one], for which the AC50 in test [1] was 0.005 to 0.015 µM.
As for `C=CC(=O)N1CCc2nn(-c3ccc(C4CC4)cc3)c3c2C(C1)N(C(=O)c1ccc(C(F)(F)F)nn1)CC3` (stereo not drawn) [Compound 115, 1-(2-(4-cyclopropylphenyl)-5-(6-(trifluoromethyl)pyridazine-3-carbonyl)-2,3,4,5,5a,6,8,9-octahydro-7H-1,2,5,7-tetraazabenzo[cd]azulen-7-yl)prop-2-en-1-one], the AC50 was over 3000 nM in the test on HT29 cells, 500 to 1000 nM in the test with HCT116 cells and 0.015 to 0.055 µM in test [1].
On the same counts, the results for `C=CC(=O)N1CCc2nn(-c3ccc(C4CC4)cc3)c3c2C(C1)N(C(=O)c1cc2n(n1)CCN(C)S2(=O)=O)CC3` (stereo not drawn) [Compound 116, 1-(2-(4-cyclopropylphenyl)-5-(2-methyl-1,1-dioxido-3,4-dihydro-2H-pyrazolo[1,5-e][1,2,5]thiadiazine-7-carbonyl)-2,3,4,5,5a,6,8,9-octahydro-7H-1,2,5,7-tetraazabenzo[cd]azulen-7-yl)prop-2-en-1-one] are over 3000 nM, over 1000 nM and over 0.055 µM.
The like results for `C=CC(=O)N1CCc2nn(-c3ccc(C4CC4)cc3)c3c2C(C1)N(C(=O)c1ccc(OCC(F)(F)F)nc1)CC3` (stereo not drawn) [Compound 118, 1-(2-(4-cyclopropylphenyl)-5-(6-(2,2,2-trifluoroethoxy)nicotinoyl)-2,3,4,5,5a,6,8,9-octahydro-7H-1,2,5,7-tetraazabenzo[cd]azulen-7-yl)prop-2-en-1-one] were, in that order, over 3000 nM, over 1000 nM and over 0.055 µM.
For the compound `C=CC(=O)N1CCc2nn(-c3ccc(C4CC4)cc3)c3c2C(C1)N(C(=O)C12CC(C(F)(F)F)(C1)C2)CC3` (stereo not drawn) [Compound 121, 1-(2-(4-cyclopropylphenyl)-5-(3-(trifluoromethyl)bicyclo [1.1.1]pentane-1-carbonyl)-2,3,4,5,5a,6,8,9-octahydro-7H-1,2,5,7-tetraazabenzo[cd]azulen-7-yl)prop-2-en-1-one], the AC50 in test [1] is 0.015 to 0.055 µM.
Still for that read-out and setting: to `C=CC(=O)N1CCc2nn(-c3ccc(C4CC4)cc3)c3c2C(C1)N(C(=O)c1cnc2[nH]c(C(F)(F)F)nc2c1)CC3` (stereo not drawn) [Compound 124, 1-(2-(4-cyclopropylphenyl)-5-(2-(trifluoromethyl)-3H-imidazo[4,5-b]pyridine-6-carbonyl)-2,3,4,5,5a,6,8,9-octahydro-7H-1,2,5,7-tetraazabenzo[cd]azulen-7-yl)prop-2-en-1-one] belongs 0.015 to 0.055 µM.
The same measure, in the same setting: to `C=CC(=O)N1CCc2nn(-c3ccc(C4CC4)cc3)c3c2C(C1)N(C(=O)c1csc(S(N)(=O)=O)c1)CC3` (stereo not drawn) [Compound 125, 4-(7-acryloyl-2-(4-cyclopropylphenyl)-3,4,5,5a,6,7,8,9-octahydro-2H-1,2,5,7-tetraazabenzo[cd]azulene-5-carbonyl)thiophene-2-sulfonamide] belongs over 0.055 µM.
